Measurements: US20260166128A1, “HUMAN AMYLIN ANALOG, AND DERIVATIVE THEREOF AND USE THEREOF” (priority 2022, published 2026)
Numbered stars: 1 amine (or outer) side, 2 acyl side, 3 side chain; on linkers, the order of the positions; unused ones are H or OH. Bridge positions count the residues as written; N and C are the ends. Square brackets hold non-standard residues; d marks the D form. Side chains are listed from the residue outwards. Peptide text beside a SMILES is read from it. * marks the point of attachment. C20 diacid = O=C(O)CCCCCCCCCCCCCCCCCCC(=O)*; γGlu = O=C(O)[C@H](CCC(=O)[*:2])N[*:1]; Hyp = O=C(O)[C@@H]1C[C@@H](O)CN1; Aze = O=C(O)[C@@H]1CCN1

Key:
[1] = target: T1, human amylin receptor (Homo sapiens, UniProt O60896+P30988); assay: Luciferase assay of amylin derivatives in amylin receptor/CRE-luc CHO cell line; format: cell-based; conditions: CHO-K1/Ga15/AMY3 CRE-luc cells, 24 hours incubation, F12 medium containing 10% FBS; read-out: EC50
T1 construct: host or cells: CHO-K1/Ga15/AMY3 cells, further stably transfected with a CRE-luciferase plasmid
T1 sequence (P30988 25-474): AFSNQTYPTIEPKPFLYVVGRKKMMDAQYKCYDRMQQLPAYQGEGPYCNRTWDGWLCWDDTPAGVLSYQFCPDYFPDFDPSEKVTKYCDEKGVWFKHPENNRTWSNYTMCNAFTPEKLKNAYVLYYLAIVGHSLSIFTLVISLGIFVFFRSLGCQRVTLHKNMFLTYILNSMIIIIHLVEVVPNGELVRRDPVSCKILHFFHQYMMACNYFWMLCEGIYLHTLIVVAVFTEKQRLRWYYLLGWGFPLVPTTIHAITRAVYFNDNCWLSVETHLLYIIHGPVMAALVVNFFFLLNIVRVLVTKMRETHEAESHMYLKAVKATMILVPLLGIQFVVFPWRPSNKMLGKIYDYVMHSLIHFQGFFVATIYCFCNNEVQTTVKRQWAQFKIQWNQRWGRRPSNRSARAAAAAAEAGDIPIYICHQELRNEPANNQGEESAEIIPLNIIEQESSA
T1 sequence (O60896 24-148 partner): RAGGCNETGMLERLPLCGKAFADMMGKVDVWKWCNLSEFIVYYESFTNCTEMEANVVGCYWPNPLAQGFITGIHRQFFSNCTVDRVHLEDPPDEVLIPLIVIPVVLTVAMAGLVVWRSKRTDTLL
Procedure: The experiment was intended to detect the activity or efficacy of the amylin derivatives on a human amylin receptor in vitro by luciferase assay.
50 μL of growth medium (F12 medium containing 10% FBS) was added into each well of a white 96-well plate, and the stably transfected amylin/CRE-lue CHO cells were inoculated into the white 96-well plate at a density of about 20,000 cells/well for activity determination.

[2] = Freeze-thaw stability of derivatives (freeze-thaw yield by liquid chromatography); format: physicochemical; conditions: for Dissolution property: appearance after dissolution at 0.2 mg/ml in 20 mM phosphate buffer solution (PB) (pH 7.0); for Freeze storage property: appearance after overnight storage at −20° C. and thawing to room temperature, 0.2 mg/ml in 20 mM PB (pH 7.0); for Freeze storage yield: concentration of polypeptide after freezing and thawing / concentration before, by liquid chromatography, −20° C. overnight
Summary of the method: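 Lyophilised peptide derivative dissolved at 0.2 mg/ml in 20 mM phosphate buffer, pH 7.0, frozen overnight at −20° C, then thawed at room temperature. Peptide concentration before and after freeze-thaw measured by reversed-phase HPLC on centrifuged supernatant; yield = post-thaw/pre-thaw concentration.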

| Compound | EC50 [1] [nM] | Dissolution property [2] | Freeze storage property [2] | Freeze storage yield [2] [%] |
| --- | --- | --- | --- | --- |
| CC[C@H](C)[C@H](NC(=O)[C@@H]1CCCN1C(=O)[C@H](CCCCNC(=O)CC[C@H](NC(=O)CCCCCCCCCCCCCCCCCCC(=O)O)C(=O)O)NC(=O)[C@H](CC(C)C)NC(=O)[C@H](CC(N)=O)NC(=O)[C@H](CC(N)=O)NC(=O)[C@H](CO)NC(=O)[C@H](CO)NC(=O)[C@H](Cc1c[nH]cn1)NC(=O)[C@H](CCCNC(=N)N)NC(=O)[C@H](CC(C)C)NC(=O)[C@H](Cc1ccccc1)NC(=O)[C@H](CCC(=O)O)NC(=O)[C@H](C)NC(=O)[C@H](CC(C)C)NC(=O)[C@H](CCCNC(=N)N)NC(=O)[C@H](CCC(N)=O)NC(=O)[C@@H](NC(=O)[C@H](C)NC(=O)[C@@H]1CSSC[C@H](N)C(=O)N[C@@H](CC(N)=O)C(=O)N[C@@H]([C@@H](C)O)C(=O)N[C@@H](C)C(=O)N[C@@H]([C@@H](C)O)C(=O)N1)[C@@H](C)O)C(=O)N[C@@H](CC(C)C)C(=O)N1CCC[C@H]1C(=O)N1CCC[C@H]1C(=O)N[C@H](C(=O)N[C@@H](CC(N)=O)C(=O)N[C@H](C(=O)NCC(=O)N[C@@H](CO)C(=O)N[C@@H](CC(N)=O)C(=O)N[C@H](C(=O)N1CCC[C@H]1C(N)=O)[C@@H](C)O)C(C)C)[C@@H](C)O [PD049] (H-CNTATCATQRLAEFLRHSSNNLK([γGlu-C20 diacid])PILPPTNVGSNTP-NH2; disulfide 1-6 (inferred); N-terminus assumed) | 0.215 | Clear | Clear | 99.00 |
| CC[C@H](C)[C@H](NC(=O)[C@@H]1CCCN1C(=O)[C@H](CCCCNC(=O)CC[C@H](NC(=O)CCCCCCCCCCCCCCCCCCC(=O)O)C(=O)O)NC(=O)[C@H](CC(C)C)NC(=O)[C@H](CC(N)=O)NC(=O)[C@H](CC(N)=O)NC(=O)[C@H](CO)NC(=O)[C@H](CO)NC(=O)[C@H](Cc1c[nH]cn1)NC(=O)[C@H](CCCNC(=N)N)NC(=O)[C@H](CC(C)C)NC(=O)[C@H](Cc1ccccc1)NC(=O)[C@H](CC(=O)O)NC(=O)[C@H](C)NC(=O)[C@H](CC(C)C)NC(=O)[C@H](CCCNC(=N)N)NC(=O)[C@H](CCC(N)=O)NC(=O)[C@@H](NC(=O)[C@H](C)NC(=O)[C@@H]1CSSC[C@H](N)C(=O)N[C@@H](CC(N)=O)C(=O)N[C@@H]([C@@H](C)O)C(=O)N[C@@H](C)C(=O)N[C@@H]([C@@H](C)O)C(=O)N1)[C@@H](C)O)C(=O)N[C@@H](CC(C)C)C(=O)N1CCC[C@H]1C(=O)N1CCC[C@H]1C(=O)N[C@H](C(=O)N[C@@H](CC(N)=O)C(=O)N[C@H](C(=O)NCC(=O)N[C@@H](CO)C(=O)N[C@@H](CC(N)=O)C(=O)N[C@H](C(=O)N1CCC[C@H]1C(N)=O)[C@@H](C)O)C(C)C)[C@@H](C)O [PD050] (H-CNTATCATQRLADFLRHSSNNLK([γGlu-C20 diacid])PILPPTNVGSNTP-NH2; disulfide 1-6 (inferred)) | 0.098 | Clear | Clear | 99.66 |
| CC[C@H](C)[C@H](NC(=O)[C@@H]1CCCN1C(=O)[C@H](CCCCNC(=O)CC[C@H](NC(=O)CCCCCCCCCCCCCCCCCCC(=O)O)C(=O)O)NC(=O)[C@H](CC(C)C)NC(=O)[C@H](CC(N)=O)NC(=O)[C@H](CC(N)=O)NC(=O)[C@H](CO)NC(=O)[C@H](CO)NC(=O)[C@H](Cc1c[nH]cn1)NC(=O)[C@H](CCCNC(=N)N)NC(=O)[C@H](CC(C)C)NC(=O)[C@H](Cc1ccccc1)NC(=O)[C@H](CC(=O)O)NC(=O)[C@H](C)NC(=O)[C@H](CC(C)C)NC(=O)[C@H](CCCNC(=N)N)NC(=O)[C@H](CCC(N)=O)NC(=O)[C@@H](NC(=O)[C@H](C)NC(=O)[C@@H]1CSSC[C@H](NC(=O)[C@@H](N)CCCNC(=N)N)C(=O)N[C@@H](CC(N)=O)C(=O)N[C@@H]([C@@H](C)O)C(=O)N[C@@H](C)C(=O)N[C@@H]([C@@H](C)O)C(=O)N1)[C@@H](C)O)C(=O)N[C@@H](CC(C)C)C(=O)N1CCC[C@H]1C(=O)N1CCC[C@H]1C(=O)N[C@H](C(=O)N[C@@H](CC(N)=O)C(=O)N[C@H](C(=O)NCC(=O)N[C@@H](CO)C(=O)N[C@@H](CC(N)=O)C(=O)N[C@H](C(=O)N1C[C@H](O)C[C@H]1C(N)=O)[C@@H](C)O)C(C)C)[C@@H](C)O [PD052] (H-RCNTATCATQRLADFLRHSSNNLK([γGlu-C20 diacid])PILPPTNVGSNT[Hyp]-NH2; disulfide 2-7 (inferred); N-terminus assumed) | 0.03 | Clear | Clear | 96.53 |
| CC[C@H](C)[C@H](NC(=O)[C@@H]1CCCN1C(=O)[C@H](CCCCNC(=O)CC[C@H](NC(=O)CCCCCCCCCCCCCCCCCCC(=O)O)C(=O)O)NC(=O)[C@H](CC(C)C)NC(=O)[C@H](CC(N)=O)NC(=O)[C@H](CC(N)=O)NC(=O)[C@H](CO)NC(=O)[C@H](CO)NC(=O)[C@H](Cc1c[nH]cn1)NC(=O)[C@H](CCCNC(=N)N)NC(=O)[C@H](CC(C)C)NC(=O)[C@H](Cc1ccccc1)NC(=O)[C@H](CC(=O)O)NC(=O)[C@H](C)NC(=O)[C@H](CC(C)C)NC(=O)[C@H](CCCNC(=N)N)NC(=O)[C@H](CCC(N)=O)NC(=O)[C@@H](NC(=O)[C@H](C)NC(=O)[C@@H]1CSSC[C@H](NC(=O)[C@@H](N)CCCNC(=N)N)C(=O)N[C@@H](CC(N)=O)C(=O)N[C@@H]([C@@H](C)O)C(=O)N[C@@H](C)C(=O)N[C@@H]([C@@H](C)O)C(=O)N1)[C@@H](C)O)C(=O)N[C@@H](CC(C)C)C(=O)N1CCC[C@H]1C(=O)N1CCC[C@H]1C(=O)N[C@H](C(=O)N[C@@H](CC(N)=O)C(=O)N[C@H](C(=O)NCC(=O)N[C@@H](CO)C(=O)N[C@@H](CC(N)=O)C(=O)N[C@H](C(=O)N1CC[C@H]1C(N)=O)[C@@H](C)O)C(C)C)[C@@H](C)O [PD060] (H-RCNTATCATQRLADFLRHSSNNLK([γGlu-C20 diacid])PILPPTNVGSNT[Aze]-NH2; disulfide 2-7 (inferred)) | 0.246 | Clear | Clear | 104.35 |
| CC[C@H](C)[C@H](NC(=O)[C@@H]1CCCN1C(=O)CNC(=O)[C@H](Cc1ccccc1)NC(=O)[C@H](CC(N)=O)NC(=O)[C@H](CC(N)=O)NC(=O)[C@H](CO)NC(=O)[C@H](CO)NC(=O)[C@H](Cc1c[nH]cn1)NC(=O)[C@H](CCCNC(=N)N)NC(=O)[C@H](CC(C)C)NC(=O)[C@H](Cc1ccccc1)NC(=O)[C@H](CCC(=O)O)NC(=O)[C@H](C)NC(=O)[C@H](CC(C)C)NC(=O)[C@H](CCCNC(=N)N)NC(=O)[C@H](CCC(N)=O)NC(=O)[C@@H](NC(=O)[C@H](C)NC(=O)[C@@H]1CSSC[C@H](NC(=O)[C@@H](N)CCCCNC(=O)CC[C@H](NC(=O)CCCCCCCCCCCCCCCCCCC(=O)O)C(=O)O)C(=O)N[C@@H](CC(N)=O)C(=O)N[C@@H]([C@@H](C)O)C(=O)N[C@@H](C)C(=O)N[C@@H]([C@@H](C)O)C(=O)N1)[C@@H](C)O)C(=O)N[C@@H](CC(C)C)C(=O)N1CCC[C@H]1C(=O)N1CCC[C@H]1C(=O)N[C@H](C(=O)N[C@@H](CC(N)=O)C(=O)N[C@H](C(=O)NCC(=O)N[C@@H](CO)C(=O)N[C@@H](CC(N)=O)C(=O)N[C@H](C(=O)N1CCC[C@H]1C(N)=O)[C@@H](C)O)C(C)C)[C@@H](C)O [PD066] | 0.044 | Clear | Clear | 93.44 |
| CC[C@H](C)[C@H](NC(=O)[C@@H]1CCCN1C(=O)CNC(=O)[C@H](Cc1ccccc1)NC(=O)[C@H](CC(N)=O)NC(=O)[C@H](CC(N)=O)NC(=O)[C@H](CO)NC(=O)[C@H](CO)NC(=O)[C@H](Cc1c[nH]cn1)NC(=O)[C@H](CCCNC(=N)N)NC(=O)[C@H](CC(C)C)NC(=O)[C@H](Cc1ccccc1)NC(=O)[C@H](CC(=O)O)NC(=O)[C@H](C)NC(=O)[C@H](CC(C)C)NC(=O)[C@H](CCCNC(=N)N)NC(=O)[C@H](CCC(N)=O)NC(=O)[C@@H](NC(=O)[C@H](C)NC(=O)[C@@H]1CSSC[C@H](NC(=O)[C@H](CCCCN)NC(=O)CC[C@H](NC(=O)CCCCCCCCCCCCCCCCCCC(=O)O)C(=O)O)C(=O)N[C@@H](CC(N)=O)C(=O)N[C@@H]([C@@H](C)O)C(=O)N[C@@H](C)C(=O)N[C@@H]([C@@H](C)O)C(=O)N1)[C@@H](C)O)C(=O)N[C@@H](CC(C)C)C(=O)N1CCC[C@H]1C(=O)N1CCC[C@H]1C(=O)N[C@H](C(=O)N[C@@H](CC(N)=O)C(=O)N[C@H](C(=O)NCC(=O)N[C@@H](CO)C(=O)N[C@@H](CC(N)=O)C(=O)N[C@H](C(=O)N1C[C@H](O)C[C@H]1C(N)=O)[C@@H](C)O)C(C)C)[C@@H](C)O [PD067] ({C20 diacid-γGlu}-KCNTATCATQRLADFLRHSSNNFGPILPPTNVGSNT[Hyp]-NH2; disulfide 2-7 (inferred)) | 0.034 | Clear | Clear | 98.84 |
